Results taken from patent US20240269139A1, “COMPOUNDS FOR TARGETED PROTEIN DEGRADATION OF KINASES” (DANA-FARBER CANCER INSTITUTE, INC., priority 2020, published 2024).
Like-named read-outs stand apart in the source and are kept apart here.

Columns and labels:
Format in all cases: cell-based
[1] = target: T1, protein kinases (human kinome) (Homo sapiens, UniProt O14976)
T1 sequence (O14976 1-1311): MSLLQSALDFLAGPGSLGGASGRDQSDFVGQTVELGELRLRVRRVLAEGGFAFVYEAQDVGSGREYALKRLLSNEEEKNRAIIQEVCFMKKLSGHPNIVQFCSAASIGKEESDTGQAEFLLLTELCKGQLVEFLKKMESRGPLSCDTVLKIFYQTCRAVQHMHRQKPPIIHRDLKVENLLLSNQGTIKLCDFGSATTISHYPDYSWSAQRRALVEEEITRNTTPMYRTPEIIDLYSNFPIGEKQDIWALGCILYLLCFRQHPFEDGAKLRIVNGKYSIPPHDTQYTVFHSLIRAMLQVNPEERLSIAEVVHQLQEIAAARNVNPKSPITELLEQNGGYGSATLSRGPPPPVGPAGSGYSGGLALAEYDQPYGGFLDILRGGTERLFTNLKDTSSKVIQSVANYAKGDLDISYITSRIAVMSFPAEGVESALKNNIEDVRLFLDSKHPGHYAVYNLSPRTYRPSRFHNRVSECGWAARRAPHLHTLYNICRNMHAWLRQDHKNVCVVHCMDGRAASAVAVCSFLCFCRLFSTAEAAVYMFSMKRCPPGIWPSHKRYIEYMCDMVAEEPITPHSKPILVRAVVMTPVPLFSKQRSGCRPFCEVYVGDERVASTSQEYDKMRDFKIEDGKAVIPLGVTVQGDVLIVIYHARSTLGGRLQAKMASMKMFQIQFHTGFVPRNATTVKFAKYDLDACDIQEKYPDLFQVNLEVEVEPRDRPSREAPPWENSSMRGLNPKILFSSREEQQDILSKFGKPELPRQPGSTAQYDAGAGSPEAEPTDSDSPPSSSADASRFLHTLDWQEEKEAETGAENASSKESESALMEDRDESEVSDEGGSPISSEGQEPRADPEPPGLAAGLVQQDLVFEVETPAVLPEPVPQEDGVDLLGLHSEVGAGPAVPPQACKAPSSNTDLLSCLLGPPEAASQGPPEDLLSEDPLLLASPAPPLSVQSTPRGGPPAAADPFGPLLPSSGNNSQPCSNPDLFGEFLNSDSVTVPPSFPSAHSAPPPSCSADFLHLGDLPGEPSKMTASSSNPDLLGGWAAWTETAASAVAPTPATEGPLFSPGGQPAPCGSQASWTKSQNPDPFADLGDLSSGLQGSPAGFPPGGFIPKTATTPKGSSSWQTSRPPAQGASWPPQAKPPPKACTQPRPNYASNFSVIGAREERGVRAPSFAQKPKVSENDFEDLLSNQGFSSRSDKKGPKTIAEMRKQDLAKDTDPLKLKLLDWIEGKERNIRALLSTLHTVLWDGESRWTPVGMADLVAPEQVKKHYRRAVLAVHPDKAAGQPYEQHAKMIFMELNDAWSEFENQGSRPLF

[2] = target: protein kinases (human kinome) (Homo sapiens, UniProt Q2M2I8)
Chain of protein kinases (human kinome) (Homo sapiens, UniProt Q2M2I8) (Q2M2I8 whole entry): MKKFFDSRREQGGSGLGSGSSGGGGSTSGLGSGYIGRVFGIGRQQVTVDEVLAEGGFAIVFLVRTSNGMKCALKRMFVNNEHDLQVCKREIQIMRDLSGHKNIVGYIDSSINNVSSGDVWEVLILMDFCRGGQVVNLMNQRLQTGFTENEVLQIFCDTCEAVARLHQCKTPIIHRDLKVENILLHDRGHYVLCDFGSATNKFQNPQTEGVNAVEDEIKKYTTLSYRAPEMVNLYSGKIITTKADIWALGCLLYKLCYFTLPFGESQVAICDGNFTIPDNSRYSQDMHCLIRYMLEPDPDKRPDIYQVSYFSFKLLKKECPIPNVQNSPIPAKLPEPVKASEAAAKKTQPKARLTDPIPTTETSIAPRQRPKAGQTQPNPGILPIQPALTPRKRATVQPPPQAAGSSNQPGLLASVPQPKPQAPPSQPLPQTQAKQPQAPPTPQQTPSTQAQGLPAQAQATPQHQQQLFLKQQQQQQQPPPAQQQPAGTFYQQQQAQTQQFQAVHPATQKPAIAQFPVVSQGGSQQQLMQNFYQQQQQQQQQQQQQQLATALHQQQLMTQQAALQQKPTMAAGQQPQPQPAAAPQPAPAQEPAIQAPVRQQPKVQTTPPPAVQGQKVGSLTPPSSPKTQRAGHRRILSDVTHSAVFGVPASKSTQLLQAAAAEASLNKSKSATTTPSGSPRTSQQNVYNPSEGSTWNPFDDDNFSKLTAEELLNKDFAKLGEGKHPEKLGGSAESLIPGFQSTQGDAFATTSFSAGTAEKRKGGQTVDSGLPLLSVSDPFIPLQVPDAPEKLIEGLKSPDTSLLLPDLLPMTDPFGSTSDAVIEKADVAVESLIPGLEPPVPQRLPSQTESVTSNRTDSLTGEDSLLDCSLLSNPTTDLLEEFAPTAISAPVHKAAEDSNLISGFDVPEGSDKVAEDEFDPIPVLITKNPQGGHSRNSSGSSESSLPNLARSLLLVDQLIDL

[3] = target: protein kinases (human kinome) (Homo sapiens, UniProt Q00534); details: for logFC CDK6: CDK6 (Q00534), direction down; for logFC of CDK6 (Q00534): down
Chain of protein kinases (human kinome) (Homo sapiens, UniProt Q00534) (Q00534 whole entry): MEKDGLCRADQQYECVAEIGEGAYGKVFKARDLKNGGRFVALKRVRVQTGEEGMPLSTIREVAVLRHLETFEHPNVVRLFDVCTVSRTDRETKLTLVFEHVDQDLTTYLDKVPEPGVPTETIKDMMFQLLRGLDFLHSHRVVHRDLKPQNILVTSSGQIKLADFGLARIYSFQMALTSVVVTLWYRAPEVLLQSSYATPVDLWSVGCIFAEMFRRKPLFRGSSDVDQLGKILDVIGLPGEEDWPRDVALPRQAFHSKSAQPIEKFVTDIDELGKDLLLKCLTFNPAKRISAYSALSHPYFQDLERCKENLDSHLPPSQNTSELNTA

[4] = target: protein kinases (human kinome) (Homo sapiens, UniProt P16591); details: for logFC of FER (P16591-1): down; for logFC of FER: FER P16591-1
Chain of protein kinases (human kinome) (Homo sapiens, UniProt P16591) (P16591 whole entry): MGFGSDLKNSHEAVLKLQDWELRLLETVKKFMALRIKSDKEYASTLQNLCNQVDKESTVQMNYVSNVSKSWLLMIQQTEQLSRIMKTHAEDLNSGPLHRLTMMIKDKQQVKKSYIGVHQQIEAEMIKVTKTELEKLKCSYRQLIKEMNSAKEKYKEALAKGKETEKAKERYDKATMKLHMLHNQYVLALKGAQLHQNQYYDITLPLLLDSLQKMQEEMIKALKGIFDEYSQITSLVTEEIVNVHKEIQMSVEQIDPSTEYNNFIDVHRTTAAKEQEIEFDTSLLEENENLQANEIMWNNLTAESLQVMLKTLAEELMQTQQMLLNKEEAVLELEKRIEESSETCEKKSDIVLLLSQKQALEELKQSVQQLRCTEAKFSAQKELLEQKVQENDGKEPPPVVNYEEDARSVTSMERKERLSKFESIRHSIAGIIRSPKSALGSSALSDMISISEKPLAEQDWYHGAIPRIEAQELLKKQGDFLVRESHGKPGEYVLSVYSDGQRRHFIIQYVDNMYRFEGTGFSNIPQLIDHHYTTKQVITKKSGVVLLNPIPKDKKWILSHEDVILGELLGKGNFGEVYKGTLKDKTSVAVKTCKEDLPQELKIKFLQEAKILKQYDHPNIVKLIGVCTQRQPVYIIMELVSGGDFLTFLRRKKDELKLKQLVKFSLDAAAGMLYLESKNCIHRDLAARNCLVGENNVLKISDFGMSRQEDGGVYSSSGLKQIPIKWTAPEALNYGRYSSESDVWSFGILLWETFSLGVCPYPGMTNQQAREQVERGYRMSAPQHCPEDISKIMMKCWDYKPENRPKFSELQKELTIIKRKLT

[5] = GAK (O14976), direction down, experiment wp117
[6] = AAK1 (Q2M218-1), experiment wp045, down
[7] = AAK1 (Q2M218-1), experiment wp117, down
[8] = AAK1, accession Q2M218-1, experiment wp045, direction of change down
[9] = AAK1, accession Q2M218-1, experiment wp117, direction of change down
[10] = AAK1 (Q2M218-1), experiment wp146, down
[11] = AAK1, accession Q2M218-1, experiment wp146, direction of change down
[12] = GAK (O14976), experiment wp195, down
[13] = GAK, accession O14976, experiment wp195, direction of change down
[14] = AAK1 (Q2M218-1), experiment wp195, down
[15] = AAK1, accession Q2M218-1, experiment wp195, direction of change down

**Q.** For `O=C(COc1cccc2c1C(=O)N(C1CCC(=O)NC1=O)C2=O)NCCCCCCCN1CCc2cc(Nc3ncc(C4CC4)c(NCCCNC(=O)C4CCC4)n3)ccc2C1` (centres unmarked) [BSJ.04.178], which “logFC of GAK (O14976)” value ([1]; Experiment wp134, down) is on record?
**A.** −2.402

**Q.** And the “logFC GAK” value ([1]; GAK (O14976), direction down, experiment wp134)?
**A.** −2.402

**Q.** And the “logFC AAK1” value ([2]; AAK1 (Q2M218-1), experiment wp134, down)?
**A.** −3.342

**Q.** And the “logFC AAK1” value ([2]; AAK1, accession Q2M218-1, experiment wp134, direction of change down)?
**A.** −3.342

**Q.** What does the source list for `CS(=O)(=O)Nc1cccc(-c2csc3cnc(Nc4ccc(N5CCN(CCCCCOc6cccc7c6C(=O)N(C6CCC(=O)NC6=O)C7=O)CC5)cc4)nc23)c1` (centres unmarked) [DB0614, N-(3-(2-((4-(4-(5-((2-(2,6-Dioxopiperidin-3-yl)-1,3-dioxoisoindolin-4-yl)oxy)pentyl)piperazin-1-yl)phenyl)amino)thieno[3,2-d]pyrimidin-7-yl)phenyl)methanesulfonamide]?
**A.** logFC CDK6 ([3]; experiment wp045): −2.265; logFC CDK6 ([3]; experiment wp117): −2.079; logFC of CDK6 (Q00534) ([3]; Experiment wp045): −2.265; logFC of CDK6 (Q00534) ([3]; Experiment wp117): −2.079; logFC of GAK (O14976) ([1]; Experiment wp045, down): −0.3305; logFC of GAK (O14976) ([1]; Experiment wp117, down): −0.4196; logFC GAK ([1]; GAK (O14976), direction down, experiment wp045): −0.3305; logFC GAK [1, 5]: −0.4196; logFC AAK1 [2, 6]: −1.863; logFC AAK1 [2, 7]: −1.652; logFC AAK1 [2, 8]: −1.863; logFC AAK1 [2, 9]: −1.662; logFC of FER (P16591-1) ([4]; Experiment wp045): −0.7641; logFC of FER (P16591-1) ([4]; Experiment wp117): −0.7725; logFC of FER ([4]; experiment wp045): −0.7641; logFC of FER ([4]; experiment wp117): −0.7725

**Q.** For `Cc1cnc(Nc2ccc(N3CCN(CCOCCOCCNC(=O)COc4cccc5c4C(=O)N(C4CCC(=O)NC4=O)C5=O)CC3)cc2)nc1Nc1cccc(S(=O)(=O)NC(C)(C)C)c1` (centres unmarked) [JWG.118], which “logFC of GAK (O14976)” value ([1]; Experiment wp071, down) is on record?
**A.** −1.972

**Q.** What about the “logFC GAK” value ([1]; GAK (O14976), direction down, experiment wp071) of the same molecule?
**A.** −1.972

**Q.** What about the “logFC AAK1” value ([2]; AAK1 (Q2M218-1), experiment wp071, down) of the same molecule?
**A.** −3.044

**Q.** What about the “logFC AAK1” value ([2]; AAK1, accession Q2M218-1, experiment wp071, direction of change down) of the same molecule?
**A.** −3.044

**Q.** How did the “logFC AAK1” value [2, 10] turn out when `Cc1cc(Nc2ncc(Br)c(Nc3cccc(F)c3C(N)=O)n2)ccc1S(=O)(=O)NCCOCCOCCOCCOCCNc1cccc2c1C(=O)N(C1CCC(=O)NC1=O)C2=O` (centres unmarked) [TMX.02.174] was run?
**A.** −1.62

**Q.** What about the “logFC AAK1” value [2, 11] of the same molecule?
**A.** −1.62

**Q.** What about the “logFC of FER (P16591-1)” value ([4]; Experiment wp146) of the same molecule?
**A.** −1.089

**Q.** What about the “logFC of FER” value ([4]; experiment wp146) of the same molecule?
**A.** −1.089

**Q.** `Cc1cnc(Nc2ccc(N3CCN(CCCCCCC(=O)N[C@H](C(=O)N4C[C@H](O)C[C@H]4C(=O)N[C@@H](C)c4ccc(-c5scnc5C)cc4)C(C)(C)C)CC3)cc2)nc1Nc1cccc(S(=O)(=O)NC(C)(C)C)c1` [JWG.123] was tested. Which “logFC GAK” value [1, 12] did it give?
**A.** −0.5246

**Q.** What about the “logFC GAK” value [1, 13] of the same molecule?
**A.** −0.5246

**Q.** And the “logFC AAK1” value [2, 14]?
**A.** −1.091

**Q.** What about the “logFC AAK1” value [2, 15] of the same molecule?
**A.** −1.091

**Q.** Which “logFC CDK6” value ([3]; experiment wp137) does the source give for `CC(C)S(=O)(=O)c1ccccc1Nc1nc(Nc2ccc(N3CCN(CCOCCOCCC(=O)NCCNc4cccc5c4CN(C4CCC(=O)NC4=O)C5=O)CC3)cc2)ncc1Cl` (centres unmarked) [TL13.97] here?
**A.** −0.5967

**Q.** And the “logFC of CDK6 (Q00534)” value ([3]; Experiment wp137)?
**A.** −0.5967

**Q.** What about the “logFC AAK1” value ([2]; AAK1 (Q2M218-1), experiment wp137, down) of the same molecule?
**A.** −2.479

**Q.** What about the “logFC AAK1” value ([2]; AAK1, accession Q2M218-1, experiment wp137, direction of change down) of the same molecule?
**A.** −2.479

**Q.** And the “logFC of FER (P16591-1)” value ([4]; Experiment wp137)?
**A.** −2.412

**Q.** And the “logFC of FER” value ([4]; experiment wp137)?
**A.** −2.412

**Q.** For `NC(=O)c1c(F)cccc1Nc1nc(Nc2ccc(S(=O)(=O)NCCOCCOCCOCCOCCNc3cccc4c3C(=O)N(C3CCC(=O)NC3=O)C4=O)cc2)ncc1Br` (centres unmarked) [TMX.02.138], which “logFC AAK1” value [2, 10] is on record?
**A.** −1.129

**Q.** What about the “logFC AAK1” value [2, 11] of the same molecule?
**A.** −1.129

**Q.** And the “logFC of FER (P16591-1)” value ([4]; Experiment wp146)?
**A.** −0.8083

**Q.** What about the “logFC of FER” value ([4]; experiment wp146) of the same molecule?
**A.** −0.8083

**Q.** Which “logFC CDK6” value ([3]; experiment wp045) does the source give for `CS(=O)(=O)Nc1cccc(-c2csc3cnc(Nc4ccc(N5CCN(CCOCCOCCOc6cccc7c6C(=O)N(C6CCC(=O)NC6=O)C7=O)CC5)cc4)nc23)c1` (centres unmarked) [RSS0628] here?
**A.** −1.743

**Q.** What about the “logFC of CDK6 (Q00534)” value ([3]; Experiment wp045) of the same molecule?
**A.** −1.743

**Q.** What about the “logFC AAK1” value [2, 6] of the same molecule?
**A.** −1.24

**Q.** And the “logFC AAK1” value [2, 8]?
**A.** −1.24

**Q.** `Cc1ncsc1-c1ccc([C@H](C)NC(=O)[C@@H]2C[C@@H](O)CN2C(=O)[C@@H](NC(=O)CCCCCN2CCc3cc(Nc4ncc(C5CC5)c(NCCCNC(=O)C5CCC5)n4)ccc3C2)C(C)(C)C)cc1` [BSJ.05.026] was tested. Which “logFC GAK” value [1, 12] did it give?
**A.** −0.5819

**Q.** What about the “logFC GAK” value [1, 13] of the same molecule?
**A.** −0.6819

**Q.** And the “logFC AAK1” value [2, 14]?
**A.** −3.073

**Q.** And the “logFC AAK1” value [2, 15]?
**A.** −3.073

**Q.** With `Cc1ncsc1-c1ccc([C@H](C)NC(=O)[C@@H]2C[C@@H](O)CN2C(=O)[C@@H](NC(=O)CCCCCN2CCN(c3ccc(Nc4ncc5scc(-c6cccc(NS(C)(=O)=O)c6)c5n4)cc3)CC2)C(C)(C)C)cc1` [RSS0680, (2S,4R)-1-((S)-3,3-Dimethyl-2-(6-(4-(4-((7-(3-(methylsulfonamido)phenyl)thieno[3,2-d]pyrimidin-2-yl)amino)phenyl)piperazin-1-yl)hexanamido)butanoyl)-4-hydroxy-N—((S)-1-(4-(4-methylthiazol-5yl)phenyl)ethyl)pyrrolidine-2-carboxamide] as the molecule, how does the “logFC CDK6” value ([3]; experiment wp080) read?
**A.** −2.17

**Q.** What about the “logFC CDK6” value ([3]; experiment wp117) of the same molecule?
**A.** −2.169

**Q.** What about the “logFC of CDK6 (Q00534)” value ([3]; Experiment wp080) of the same molecule?
**A.** −2.17

**Q.** And the “logFC of CDK6 (Q00534)” value ([3]; Experiment wp117)?
**A.** −2.169

**Q.** And the “logFC of GAK (O14976)” value ([1]; Experiment wp080, down)?
**A.** −0.7773

**Q.** And the “logFC of GAK (O14976)” value ([1]; Experiment wp117, down)?
**A.** −0.6853

**Q.** And the “logFC GAK” value ([1]; GAK (O14976), direction down, experiment wp080)?
**A.** −0.7773

**Q.** What about the “logFC GAK” value [1, 5] of the same molecule?
**A.** −0.6853

**Q.** And the “logFC AAK1” value ([2]; AAK1 (Q2M218-1), experiment wp080, down)?
**A.** −1.392

**Q.** And the “logFC AAK1” value [2, 7]?
**A.** −1.05

**Q.** And the “logFC AAK1” value ([2]; AAK1, accession Q2M218-1, experiment wp080, direction of change down)?
**A.** −1.392

**Q.** What about the “logFC AAK1” value [2, 9] of the same molecule?
**A.** −1.05
